Patent publication US20240123022A1, “A STABLE ANTI-ANGIOGENIC AND ANTI-INFLAMMATORY PHARMACEUTICAL FORMULATION AND PHARMACEUTICAL COMBINATION FOR TREATMENT AND PREVENTION OF PSORIASIS” (priority 2021, published 2024)

Experiments:
[1] = system: human keratinocytes (HaCaT) cells; experiment: Annexin-V externalization (pro-apoptotic effect); type: cell-based; details: 48 h, vs control
Description: Pro-apoptotic effect of IS217 was evaluated in human keratinocytes (HaCaT) cells by using the Annexin-V externalization. In this study, cells were plated and incubated for about 24 hours by using dulbecco's modified eagle's medium (DMEM) with about 10% fetal bovine serum (FBS) and cells were sera starved using about 0.1% FBS for about 3 hours. HaCaT cells were treated with IS217 at about 0 hours and about 24 hours in concentration range of from about 100 μg/ml to about 5000 μg/ml and incubated for about 24 hours. Curcumin (1 μM-50 μM) was used as positive control. After about 48 hours of first treatment, cells were incubated with Annexin-V reagent and subsequently analyzed by flow cytometry (Guava technologies) for identification of cells population.

HaCaT cells = experiment: TUNEL assay; type: cell-based, human; details: for % increase in TUNEL-Positive cell population w.r.t. control (untreated cells): 48 h
Description: Terminal deoxynucleotidyl transferase (TdT) dUTP Nick-End Labeling (TUNEL) assay has been designed to detect apoptotic cells that undergo extensive DNA degradation during the late stages of apoptosis. […] Cells were treated with test item (IS217 of 100 μg/ml-5000 μg/ml) and positive controls like curcumin (10 μM and 20 μM), anthralin (1 μM) and betullininc acid (10 μg/ml, 20 μg/ml, 50 μg/ml). After about 48 hours of treatment, cells were analysed for the apoptotic effect via TUNEL assay. Absorbance was measured using ELISA reader (Table 1).

[2] = system: IMQ induced psoriasis mouse model; experiment: Proof of concept efficacy study, SC and topical route, IMQ-induced psoriasis mice model; type: in vivo, BALB/c mice
Description: The study objective was to validate the efficacy of IS 217 through Parental route and to study the efficacy of 1% IS 217 Cream Formulation through topically and to fix dose levels and treatment mode for further proof of concept studies and included with SC dose ([…] and 1.2 mg/kg) as proof of concept studies.
The study was conducted to evaluate efficacy of test compound IS217 (topical and subcutaneous route) on IMQ induced psoriasis mouse model.
Test items: IS217 cream formulation (topical treatment) and IS217 powder vials (subcutaneous treatment) along with placebo were provided.
Standard Drugs: 1.0.01% Batamethasone cream (Betnovate®); 100 mg/4 ml bevacuzimab (Avastin®)
Study animals: 8-9 weeks old male BALB/c mice were used for the study.
Treatment period was from day 1 to day 14. IMQ cream application: 5% IMQ cream, 65 mg was applied on shaved back and 5 mg on each ear during study period. Treatment regimen: treatment to be given twice a day-test drug high dose. 2-hour difference was taken between application of IMQ and application of test drug. 8-hour difference was taken between second application of test drug.
Required quantity of IS217 compounds was weighed on Sartorius weighing balance. Weighed amount was dissolved in 10% Propylene glycol.
• IMQ (Imigod, Glenmark pharmaceuticals) was weighed every day prior to application. • 65 mg of 5% IMQ cream was applied on shaved back of animals with help of spatula. 5 mg IMQ cream was applied on each ear of mouse. • IMQ application was done every day for 14 days and on day 15 studies were terminated. (Except for group 4 and group 5) • Group 4 was terminated on day 17 (post 14 days of treatment) • Group 5 was terminated on day 21 (post 14 days of treatment) • Group 4 and 5 received similar duration of test formulation as per group 3. • Group 4 received 17 days IMQ application, group 5 received 20 days IMQ application.
• Treatment to all the groups were done two hours post IMQ cream application • Formulation for topical application were weighted daily on Sartorius balance • Formulation for SC treatment was prepared fresh every day as per procedure mentioned above. • Standard drug Betamethasone was weighed daily and applied topically to respective treatment group • Bevacizumab was prepared fresh at the time of dosing. • All the treatments were given as per study design

H-FAKKFAKKFK-OH [IS217, H-Phe-Ala-Lys-Lys-Phe-Ala-Lys-Lys-Phe-Lys-OH]
increase in necrotic cells ([1]; 100 μg/ml): 3.6 fold
increase in late apoptotic cells ([1]; 1000 μg/ml): 1.7 fold
increase in late apoptotic cells ([1]; 2000 μg/ml): 3.4 fold
increase in necrotic cells ([1]; 2000 μg/ml): 1.4 fold
increase in late apoptotic cells ([1]; 5000 μg/ml): 5.6 fold
increase in necrotic cells ([1]; 5000 μg/ml): 3.1 fold
increase in early apoptotic cells ([1]; HaCaT, 100-5000 μg/ml): no increase
% increase in TUNEL-Positive cell population w.r.t. control (untreated cells) (HaCaT cells; 500 μg/ml): −25.0%
% increase in TUNEL-Positive cell population w.r.t. control (untreated cells) (HaCaT cells; 1000 μg/ml): −20.4%
% increase in TUNEL-Positive cell population w.r.t. control (untreated cells) (HaCaT cells; 2000 μg/ml): −25.4%
% increase in TUNEL-Positive cell population w.r.t. control (untreated cells) (HaCaT cells; 5000 μg/ml): −40.7%
increase in apoptotic cells (TUNEL positive population) (HaCaT cells; tested concentration range 100-5000 μg/ml, vs untreated): No increase
only epidermal hyperplasia (skin) ([2]; 0.6 mg/kg SC): reduced
IL-17 level in ear, skin, and serum matrix ([2]; 0.6 mg/kg and 1.2 mg/kg SC): significant decrease
TNF-α in ear homogenates samples ([2]; 0.6 mg/kg and 1.2 mg/kg SC): decreased
ear thickness ([2]; 0.6 mg/kg and 1.2 mg/kg SC): significantly decreased
overall efficacy versus the standard drug (Bevacizumab) ([2]; 0.6 mg/kg and 1.2 mg/kg SC): comparable
psoriatic score, ear weight ([2]; 0.6 mg/kg and 1.2 mg/kg SC): significant decrease
scaling, erythema and skin thickness ([2]; 0.6 mg/kg and 1.2 mg/kg SC): decrease
Epidermal hyperplasia, parakeratosis, leukocyte infiltration ([2]; 0.6 mg/kg and 1.2 mg/kg, vs vehicle): significantly decreased
epidermal hyperplasia, parakeratosis in skin ([2]; 1.2 mg/kg SC): reduced
spleen weight ([2]; SC administration): Decrease
